Read-outs that look alike come from different tables or passages of the source.

Broadly, the IC50 is the midpoint of a concentration-inhibition curve. The term AC50 denotes the midpoint of the concentration-response curve, whichever way the signal moves.

Assay [1] has as its system contractile response of isolated guinea pig ileum to angiotensin I. Kind of assay: Inhibition of contractile response of isolated guinea pig ileum to angiotensin I. Format: cell-based. The conditions noted are these: angiotensin I 0.1 μg/ml, compound added 5 min before, 30° C., read-out: Angiotensin I IC50 (50% inhibition of angiotensin I activity inducing the contraction of guinea pig ileum). The text has this:
As the method of measurement of angiotensin I-converting enzyme activity, bioassay for the contractile response of isolated smooth muscle or the pressor response of normal animals and biochemical assay for the enzyme isolated from lung or other organs of animals are known. The former is found more advantageous than the latter for the examination of the convertion of angiotensin I to angiotensin II in vivo.
In the present study, therefore, we adopted the bioassay for contractile response of isolated guinea pig ileum to angiotensin I.
(§1) Measurement of inhibitory activity of angiotensin I-converting enzyme
(§2) Isolated guinea pig ileum was suspended in the organ bath containing 20 ml of Tyrode's solution of 30° C. gassed with 95% O2 +5% CO2. The contraction induced by the addition of angiotensin I (0.1 μg/ml) at intervals of 10 minutes was recorded on a recticorder (Nihon Koden) for 90 seconds using FD pick up (ST-1T-H, Nihon Koden).
(§3) The test compounds were added to the bath 5 minutes before the addition of angiotensin I.
The inhibitory activity of angiotensin I-converting enzyme was calculated by the following formula. [formula] A: contractile intensity of angiotensin I before addition of the compound B: contractile intensity of angiotensin I after addition of the compound

Assay [2] concerns the target T1, angiotensin I-converting enzyme (Oryctolagus cuniculus, UniProt P12822).
T1 construct: angiotensin I-converting enzyme extracted from rabbit lung; from tissue; host or cells: rabbit lung
T1 sequence (P12822 34-1310): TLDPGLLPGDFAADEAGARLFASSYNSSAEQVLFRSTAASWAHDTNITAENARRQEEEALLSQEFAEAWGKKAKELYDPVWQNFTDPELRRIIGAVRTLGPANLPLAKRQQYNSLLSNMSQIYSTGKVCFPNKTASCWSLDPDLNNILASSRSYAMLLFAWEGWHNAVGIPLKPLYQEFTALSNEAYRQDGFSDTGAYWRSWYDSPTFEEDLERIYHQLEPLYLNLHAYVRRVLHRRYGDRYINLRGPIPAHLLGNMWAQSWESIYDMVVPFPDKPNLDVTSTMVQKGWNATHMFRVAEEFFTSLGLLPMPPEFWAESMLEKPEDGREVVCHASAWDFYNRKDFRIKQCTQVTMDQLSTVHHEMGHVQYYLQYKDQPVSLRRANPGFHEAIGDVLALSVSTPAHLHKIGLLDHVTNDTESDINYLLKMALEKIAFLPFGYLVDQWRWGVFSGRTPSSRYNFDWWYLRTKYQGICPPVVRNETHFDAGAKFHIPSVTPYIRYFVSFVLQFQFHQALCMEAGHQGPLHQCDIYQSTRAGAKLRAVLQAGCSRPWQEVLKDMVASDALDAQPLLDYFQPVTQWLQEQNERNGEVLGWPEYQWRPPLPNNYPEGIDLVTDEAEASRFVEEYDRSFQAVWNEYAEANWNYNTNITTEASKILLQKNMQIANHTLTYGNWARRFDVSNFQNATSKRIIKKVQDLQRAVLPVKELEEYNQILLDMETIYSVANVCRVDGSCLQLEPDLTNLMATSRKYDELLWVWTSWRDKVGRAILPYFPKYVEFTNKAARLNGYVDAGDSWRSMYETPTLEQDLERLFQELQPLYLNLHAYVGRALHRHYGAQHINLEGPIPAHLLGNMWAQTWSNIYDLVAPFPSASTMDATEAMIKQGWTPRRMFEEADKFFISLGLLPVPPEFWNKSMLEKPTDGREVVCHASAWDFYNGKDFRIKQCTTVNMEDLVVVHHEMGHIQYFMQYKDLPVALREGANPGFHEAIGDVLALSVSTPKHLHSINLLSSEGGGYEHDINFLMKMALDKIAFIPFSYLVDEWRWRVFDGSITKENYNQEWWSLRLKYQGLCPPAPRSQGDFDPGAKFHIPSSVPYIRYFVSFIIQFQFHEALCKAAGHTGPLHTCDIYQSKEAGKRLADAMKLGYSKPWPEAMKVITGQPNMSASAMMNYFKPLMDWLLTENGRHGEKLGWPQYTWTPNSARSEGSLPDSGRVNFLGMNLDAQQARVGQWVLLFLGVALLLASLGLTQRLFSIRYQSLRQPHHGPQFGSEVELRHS
Nature of the assay: Inhibition of angiotensin I-converting enzyme by spectrophotometry (HHL substrate). The format is biochemical. The conditions noted are these: enzyme from rabbit lung; 5 mM HHL; pH 8.3; 37° C., 30 min. As to the method:
That is, the absorbance of hippuric acid was measured, which is liberated by incubating hippuryl-L-histidyl-L-leucine (HHL) as substrate in the presence of angiotensin I-converting enzyme extracted from rabbit lung.
as §1
The reaction mixture is as follows:
100 mM phosphate buffer (pH 8.3)
10^-3 ~10^-9 M enzyme inhibitor
0.25 ml of the above mixture was incubated at 37° C. for 30 minutes and the reaction was stopped by adding 0.25 ml of 1 N hydrochloric acid. To this solution, 1.5 ml of ethyl acetate was added in order to extract hippuric acid. 1.0 ml of ethyl acetate layer was collected and evaporated to dryness, and the residue obtained was dissolved in 1.0 ml of water.
The inhibitory activity of angiotensin I-converting enzyme was calculated by the following formula: [formula]

For assay [3], the system named is contractile response to bradykinin (isolated guinea pig ileum). Nature of the assay: Augmentation of contractile response of isolated guinea pig ileum to bradykinin. The format is cell-based. Conditions: bradykinin 0.005 μg/ml, compound added 5 min before, 30° C., read-out: Bradykinin AC50 (50% augmentation of bradykinin activity inducing the contraction of guinea pig ileum). The method, then:
as §2, §3
From the fact that kininase II, which destroys bradykinin having contractive action on isolated guinea pig ileum, is thought to be identical with angiotensin I-converting enzyme, augmentation of the contractile response to bradykinin by test compounds was examined by using bradykinin (0.005 μg/ml) in place of angiotensin I according to the above mentioned method.

In assay [4] the test system is pressor response to angiotensin I. Kind of assay: Inhibition of pressor response to angiotensin I in rats after oral administration. The format is in vivo, rat (male Wistar). Conditions: angiotensin I 300 ng/kg i.v.; for Inhibition (%) of pressor response to angiotensin I, 5 min / Inhibition (%) of pressor response to angiotensin I, 15 min / Inhibition (%) of pressor response to angiotensin I, 25 min / Inhibition (%) of pressor response to angiotensin I, 35 min / Inhibition (%) of pressor response to angiotensin I, 45 min / Inhibition (%) of pressor response to angiotensin I, 55 min / Inhibition (%) of pressor response to angiotensin I, 65 min / Inhibition (%) of pressor response to angiotensin I, 75 min / Inhibition (%) of pressor response to angiotensin I, 85 min: dose: 3, 45, 49 1.8 mg/kg, 4, 46 1.3, 50 1.4, 76 2.0, 77 1.5; for Inhibition (%) of pressor response to angiotensin I, 95 min: dose: 45, 49 1.8 mg/kg, 4, 46 1.3, 50 1.4, 76 2.0, 77 1.5; for Inhibition (%) of pressor response to angiotensin I, 105 min / Inhibition (%) of pressor response to angiotensin I, 115 min: dose: 45, 49 1.8 mg/kg, 46 1.3, 50 1.4, 76 2.0, 77 1.5. As to the method:
Male Wistar strain rats weighing about 200-300 g were used.
Under ether anesthesia, polyethylene cannulae are inserted into carotid arthery and jugular vein. The cannula to carotid artery is connected to an electric transducer, while the cannula to jugular vein is connected to an apparatus for continuous infusion. After the complete recovery from anesthesia, angiotensin I is infused intravenously in a dose of 300 ng/kg by the apparatus for continuous infusion, and the pressor response is recorded by polygraph (Nihon Koden, RM-150).
The compounds of this invention suspended in 0.5% tragacanth solution are administered orally in a dose of 0.3 ml per 100 g of body weight, and the pressor response to angiotensin I infused intravenously is measured with time.
The inhibitory activity of the compounds against angiotensin I-converting enzyme is expressed as the percent inhibition of pressor response to angiotensin I.

Take `O=C(O)[C@@H]1CSC(CCS)N1C(=O)CCS` (single isomer, unassigned) [Compound 6a]: the IC50 was found to be 410 nM in assay [1] (Cavia porcellus) and 650 nM in assay [2]. In assay [3], the concentration at half-maximal activity (AC50) amounted to 15 nM.
As to `O=C(O)[C@@H]1CSC(CCS)N1C(=O)CCS` (single isomer, unassigned) [Compound 6b], the IC50 in assay [1] came out at 300 nM; in assay [2], 370 nM. In assay [3], the AC50 was 3.7 nM.
For `C[C@H](CS)C(=O)N1C(CCS)SC[C@H]1C(=O)O` (single isomer, unassigned) [Compound 8a], the half-inhibitory concentration (IC50) in assay [1] (Cavia porcellus) was determined as 85 nM; in assay [2], 250 nM. In addition, the AC50 in assay [3] (Cavia porcellus) was 1.4 nM.
In the case of `C[C@H](CS)C(=O)N1C(CCS)SC[C@H]1C(=O)O` (single isomer, unassigned) [Compound 8b], the IC50 turned out to be 140 nM in assay [1] and 290 nM in assay [2]. Moreover, the half-maximal activity concentration (AC50) in assay [3] turned out to be 1.1 nM.
For `C[C@H](CS)C(=O)N1C(Cc2ccccc2)SC[C@H]1C(=O)O` (single isomer, unassigned) [Compound 10a], the IC50 stood at 810 nM in assay [1] (Cavia porcellus) and 2800 nM in assay [2]. In addition, in assay [3] (Cavia porcellus), the half-maximal activity concentration (AC50) came to 13 nM.
For the compound `C[C@H](CS)C(=O)N1C(Cc2ccccc2)SC[C@H]1C(=O)O` (single isomer, unassigned) [Compound 10b], the IC50 was determined as 580 nM in assay [1] and 310 nM in assay [2]. Further, in assay [3], the AC50 turned out to be 10 nM.
`C[C@H](CSC(=O)c1ccccc1)C(=O)N1C(C2CCCCC2)SC[C@H]1C(=O)O` (stereo partly drawn) [Compound 3]: in assay [4], the “Inhibition (%) of pressor response to angiotensin I, 5 min” value (“Inhibition (%) … to angiotensin I, 5 min” below) came to 35.2%; the “Inhibition (%) of pressor response to angiotensin I, 15 min” value (“Inhibition (%) … to angiotensin I, 15 min” below) was 40.8%; the “Inhibition (%) of pressor response to angiotensin I, 25 min” value (“Inhibition (%) … 25 min” for short) is 26.9%; the “Inhibition (%) of pressor response to angiotensin I, 35 min” value (“Inhibition (%) … 35 min” below) stood at 17.9%. In addition, in assay [4], the “Inhibition (%) of pressor response to angiotensin I, 45 min” value (shortened to “Inhibition (%) … 45 min”) came to 14.2%; the “Inhibition (%) of pressor response to angiotensin I, 55 min” value (“Inhibition (%) … 55 min” for short) was 14.8%; the “Inhibition (%) of pressor response to angiotensin I, 65 min” value (“Inhibition (%) … 65 min” below) is 6.3%; the “Inhibition (%) of pressor response to angiotensin I, 75 min” value (shortened to “Inhibition (%) … 75 min”) is recorded as 9.5%. Moreover, in assay [4], the “Inhibition (%) of pressor response to angiotensin I, 85 min” value (“Inhibition (%) … 85 min” for short) is 5.8%.
For the compound `O=C(SCCC(=O)N1C(c2ccccc2O)SC[C@H]1C(=O)O)c1ccccc1` (stereo partly drawn) [Compound 45, (4R)-3-(S-Benzoyl-3-mercaptopropanoyl)-2-(2-hydroxyphenyl)-4-thiazolidinecarboxylic acid], in assay [4], the “Inhibition (%) … to angiotensin I, 5 min” value came to 20.0%; the “Inhibition (%) … to angiotensin I, 15 min” value is 26.6%; the “Inhibition (%) … 25 min” value worked out at 30.1%; the “Inhibition (%) … 35 min” value is reported as 31.8%. In assay [4], the “Inhibition (%) … 45 min” value came to 20.9%; the “Inhibition (%) … 55 min” value is 13.5%; the “Inhibition (%) … 65 min” value is 19.0%; the “Inhibition (%) … 75 min” value amounted to 14.9%. In assay [4], the “Inhibition (%) … 85 min” value amounted to 20.9%; the “Inhibition (%) of pressor response to angiotensin I, 95 min” value was found to be 10.3%; the “Inhibition (%) of pressor response to angiotensin I, 105 min” value is 10.3%; the “Inhibition (%) of pressor response to angiotensin I, 115 min” value is listed as 8.8%.
Take `COc1ccc(C2SC[C@@H](C(=O)O)N2C(=O)[C@H](C)CSC(=O)c2ccccc2)c(O)c1` (stereo partly drawn) [Compound 76]: in assay [4], the “Inhibition (%) … to angiotensin I, 5 min” value was found to be 26.0%; the “Inhibition (%) … to angiotensin I, 15 min” value was 45.9%; the “Inhibition (%) … 25 min” value is recorded as 56.1%; the “Inhibition (%) … 35 min” value is 55.9%. In addition, in assay [4], the “Inhibition (%) … 45 min” value is on record as 58.2%; the “Inhibition (%) … 55 min” value is given as 47.1%; the “Inhibition (%) … 65 min” value is on record as 48.9%; the “Inhibition (%) … 75 min” value was determined as 40.7%. Besides, in assay [4], the “Inhibition (%) … 85 min” value is 41.7%; the “Inhibition (%) of pressor response to angiotensin I, 95 min” value was 32.2%; the “Inhibition (%) of pressor response to angiotensin I, 105 min” value came out at 30.6%; the “Inhibition (%) of pressor response to angiotensin I, 115 min” value was 28.5%.
